Data on 14 molecules can be found in patent US20050074844A1, “Methods for identifying markers of antimicrobial compounds” (priority 2002, published 2005).

Converted amounts (≈) assume the structure as drawn. Where a SMILES comes first, the peptide text is derived from it.

For test [1], the system named is Bacillus subtilis BGSC1A2. Description: microbe, parasite or virus in culture. On the procedure:
Microbroth dilution assays were performed as described in NCCLS M7-A5 (Vol. 20, No. 2). The assay was performed in a sterile 96 well plate, and the total volume per well was 100 μl. […] The inoculum was prepared by culturing Bacillus subtilis BGSC1A2 overnight in MHB medium at 35° C. with shaking at 200 rpm. The following day 0.5 ml of the overnight culture was used to inoculate MHB medium to obtain a culture in logarithmic phase growth as described in NCCLS M7-A5 (Vol. 20, No. 2) and M26-A (Vol. 19, No. 18). The actual colony forming units per well was confirmed by plating onto TSA or LB agar. Two wells were inoculated for a given concentration. The plates were incubated for 16 to 20 hours at 35° C. The MIC was defined as that concentration of antibiotic resulting in no visible growth of the organism.

The test system of test [2] is Bacillus subtilis strain BGSC1A2. Description: Cell viability (colony forming units per ml) of cultures treated with sub-inhibitory antibiotic concentrations. Type of test: cell-based. To be noted: for colony forming units or viability: all sub-inhibitory concentrations tested (Table 3), versus untreated cultures. As to the method:
[…] The shake flasks were incubated at 37° C. and 200 rpm. At times 5, 15, 30 and 60 minutes after antibiotic addition, 100 ml and 1.1 ml samples were taken from each shake flask and processed as described above. After the 60 minute time point, 1.1 ml aliquots from each shake flask were taken every hour for four hours for optical density and cell viability measurements.
Cell viability was determined on all the samples by determining colony forming units per ml. Samples collected were diluted in MHB to obtain 10 to 500 colonies per plate as follows: samples collected at t=0 were diluted at 1:100,000; t=5 minutes, dilution was 1:150,000; t=15 minutes, dilution was 1:200,000; t=30 minutes, dilution was 1:250,000; t=1 hour, dilution was 1:300,000; t=1.5 hours, dilution was 1:400,000; t=2.5 hours, dilution was 1:800,000; and t=3.5 hours, dilution was 1:1,000,000. These dilutions factors can be changed as indicated by the response to the antibiotic being tested. For each diluted sample 20 μl and 40 μl aliquots were spread onto each of two pre-warmed LB agar plates, which were incubated overnight at 37° C. The number of colonies on each plate was counted to determine the colony forming units per ml of each sample.

For test [3] the test system is unchanged. Description: Growth curve (optical density at 600 nm) of shake flask cultures treated with sub-inhibitory antibiotic concentrations. The class given is cell-based. The note with it: for growth rate as measured by optical density at 600 nm: all sub-inhibitory concentrations tested (Table 3), versus untreated cultures. As to the method: Bacillus subtilis strain BGSC1A2 was streaked onto a LB agar plate and incubated overnight at 37° C. The cultured plate was stored at room temperature for up to one week. Fifty ml of MHB medium in a 250 ml flask was inoculated with one colony from the plate. The culture was incubated overnight at 37° C. and 200 rpm.
A 30.7 ml sample of the overnight culture was used to inoculate 3.6 liters of MHB medium pre-warmed at 37° C. After mixing the culture well, 600 ml aliquots were removed and placed into each of six 2.8 liter baffled shake flasks. A 1 ml sample of each flask was taken for optical density measurement at 600 nm, and the shake flasks were incubated at 37° C. and 200 rpm. One ml samples were taken from each flask every 30 minutes until the OD600 reached 0.2. At this point, which was designated time zero, 100 ml samples from each shake flask were taken, and 50 ml aliquots were placed in each of two 50 ml centrifuge tubes. In addition, 1.1 ml aliquots were taken from each flask with 1 ml used for an optical density measurement at 600 nm and 50 μl of each was placed in a microfuge tube at 4° C. The 50 ml samples were processed immediately by centrifugation at 4000 rpm at 4° C. for 7 minutes, and after centrifugation the supernatant was decanted being careful not to disturb the pellet which was immediately placed at −80° C. for total RNA isolation at a later time.
At time zero, different sub-inhibitory concentrations (0.1-1×MIC) of a given antibiotic were added to three of the shake flasks (Table 2) and the other three shake flasks were untreated. The shake flasks were incubated at 37° C. and 200 rpm. At times 5, 15, 30 and 60 minutes after antibiotic addition, 100 ml and 1.1 ml samples were taken from each shake flask and processed as described above. After the 60 minute time point, 1.1 ml aliquots from each shake flask were taken every hour for four hours for optical density and cell viability measurements.

Test [4] shares this test system. The description is as above. The class given is cell-based. To be noted: 0.01 and 0.02 x MIC (0.0025 and 0.005 μg/ml).

Molecule `CC(C)C[C@@H](NC(=O)[C@H](C)NC(=O)CNC(=O)[C@@H](NC=O)C(C)C)C(=O)N[C@@H](C)C(=O)N[C@@H](C(=O)N[C@H](C(=O)N[C@@H](C(=O)N[C@@H](Cc1c[nH]c2ccccc12)C(=O)N[C@H](CC(C)C)C(=O)N[C@@H](Cc1c[nH]c2ccccc12)C(=O)N[C@H](CC(C)C)C(=O)N[C@@H](Cc1c[nH]c2ccccc12)C(=O)N[C@H](CC(C)C)C(=O)N[C@@H](Cc1c[nH]c2ccccc12)C(=O)NCCO)C(C)C)C(C)C)C(C)C` [gramicidin A] (HELM PEPTIDE1{[O=C[*:2]].V.G.A.[dL].A.[dV].V.[dV].W.[dL].W.[dL].W.[dL].W.[OCCN[*:1]]}$$$$V2.0; N-terminus and C-terminus assumed) gave an MIC in test [1] (BGSC1A2) of 8.0 µg/mL (≈ 4.25 µM).
For the molecule `COc1cc(Cc2cnc(N)nc2N)cc(OC)c1OC` [trimethoprim], in test [2], the “colony forming units or viability” value was “did not lead to a change in colony forming units or viability”. Besides, the MIC in test [1] (Bacillus subtilis, BGSC1A2) was 0.25 µg/mL (≈ 0.861 µM). The “growth rate as measured by optical density at 600 nm” value (shortened to “growth rate as measured … at 600 nm”) in test [3] is listed as “did not have an effect on growth rate”.
In the case of `[H]/N=C(/N)N[C@H]1[C@H](O)[C@@H](O)[C@H](O[C@@H]2O[C@@H](C)[C@](O)(C=O)[C@H]2O[C@@H]2O[C@@H](CO)[C@H](O)[C@@H](O)[C@@H]2NC)[C@@H](N/C(N)=N\[H])[C@@H]1O` [streptomycin], the “colony forming units or viability” value in test [2] was “decrease in colony forming units or viability”. In test [1] (Bacillus subtilis, BGSC1A2), this molecule gave an MIC of 4 to 8 µg/mL (≈ 6.88 to 13.8 µM). The “growth rate as measured by optical density” value was “growth rate similar to the untreated cultures” in test [3] (0.8 μg/ml (0.1 x MIC)), “moderate decrease in growth rate” in test [3] (4.0 μg/ml (0.50 x MIC)) and “large” in test [3] (8.0 μg/ml (1.0 x MIC)).
For `CN[C@H](CC(C)C)C(=O)N[C@H]1C(=O)N[C@@H](CC(N)=O)C(=O)N[C@H]2C(=O)N[C@H]3C(=O)N[C@H](C(=O)N[C@H](C(=O)O)c4cc(O)cc(O)c4-c4cc3ccc4O)[C@H](O)c3ccc(c(Cl)c3)Oc3cc2cc(c3O[C@@H]2O[C@H](CO)[C@@H](O)[C@H](O)[C@H]2O[C@H]2C[C@](C)(N)[C@H](O)[C@H](C)O2)Oc2ccc(cc2Cl)[C@H]1O` [vancomycin], the “colony forming units or viability” value in test [2] was “no effect on viability”. The MIC in test [1] (Bacillus subtilis, BGSC1A2) was in the range of 0.125 to 0.25 µg/mL (≈ 0.0863 to 0.173 µM). In test [3], the “growth rate as measured … at 600 nm” value is given as “very little effect, if any”.
For `CC[C@H]1OC(=O)[C@H](C)[C@@H](O[C@H]2C[C@@](C)(OC)[C@@H](O)[C@H](C)O2)[C@H](C)[C@@H](O[C@@H]2O[C@H](C)C[C@H](N(C)C)[C@H]2O)[C@](C)(O)C[C@@H](C)C(=O)[C@H](C)[C@@H](O)[C@]1(C)O` [erythromycin], in test [2], the “colony forming units or viability” value is “decrease in colony forming units or viability”. The MIC in test [1] (Bacillus subtilis, BGSC1A2) lay within 0.125 to 0.25 µg/mL (≈ 0.17 to 0.341 µM). Moreover, the “growth rate as measured … at 600 nm” value in test [3] is “decrease in growth rate that was dose dependent”.
As for `CO[C@H]1/C=C/O[C@@]2(C)Oc3c(C)c(O)c4c(O)c(c(/C=N/N5CCN(C)CC5)c(O)c4c3C2=O)NC(=O)/C(C)=C\C=C\[C@H](C)[C@H](O)[C@@H](C)[C@@H](O)[C@@H](C)[C@H](OC(C)=O)[C@@H]1C` [rifampin], the colony forming units entry in test [2] (0.01 or 0.02 x MIC (0.0025 and 0.005 μg/ml)) is listed as “no effect on colony forming units”. In test [1] (Bacillus subtilis, BGSC1A2), this molecule came in with an MIC of 0.25 to 0.5 µg/mL (≈ 0.304 to 0.608 µM). In addition, in test [4], the “growth rate as measured by optical density” value is given as “very little effect if any”.
The molecule `O=C(N[C@H](CO)[C@H](O)c1ccc([N+](=O)[O-])cc1)C(Cl)Cl` [chloramphenicol] returned an MIC in test [1] (Bacillus subtilis, BGSC1A2) of 2 to 4 µg/mL (≈ 6.19 to 12.4 µM).
Still for that read-out and setting: as for `CCn1cc(C(=O)O)c(=O)c2ccc(C)nc21` [nalidixic acid], the figure is 4 µg/mL (≈ 17.2 µM).
For the molecule munumbicin B, the “colony forming units or viability” value in test [2] is recorded as “decrease in colony forming units or viability”.
gentamicin: in test [2], the “colony forming units or viability” value is given as “decrease in colony forming units or viability”. This molecule also returned an MIC in test [1] (no visible growth after 16 to 20 hours at 35° C., MHB medium) of 0.125 to 0.25 µg/mL. In test [3], the “growth rate as measured … at 600 nm” value was “very little effect if any”.
In turn, `CO[C@@H]1[C@@H](OC(N)=O)[C@@H](O)[C@H](Oc2ccc3c(O)c(NC(=O)c4ccc(O)c(CC=C(C)C)c4)c(=O)oc3c2C)OC1(C)C` [novobiocin] displayed an MIC in test [1] (Bacillus subtilis, BGSC1A2) of 2 µg/mL (≈ 3.26 µM).
In the case of `O=C(O)c1cn(C2CC2)c2cc(N3CCNCC3)c(F)cc2c1=O` [ciprofloxacin], in test [2], the “colony forming units or viability” value was “decrease in colony forming units or viability”.
As for `CC(=O)OCC1=C(C(=O)O)N2C(=O)[C@@H](NC(=O)Cc3cccs3)[C@H]2SC1` [cephalothin], the “colony forming units or viability” value in test [2] is given as “decrease in colony forming units or viability”. Also, the MIC in test [1] (Bacillus subtilis, BGSC1A2) was in the range of 0.0156 to 0.0625 µg/mL (≈ 0.0393 to 0.158 µM). Besides, the “growth rate as measured by optical density” value is “very little effect, if any” in test [3] (0.00156 μg/ml (0.1 x MIC)); “moderate decrease” in test [3] (0.0078 μg/ml (0.50 x MIC)); “large” in test [3] (0.0156 μg/ml (1.0 x MIC)).
As to `CCn1cc(C(=O)O)c(=O)c2cc(F)c(N3CCNCC3)cc21` [norfloxacin], the “colony forming units or viability” value in test [2] is listed as “decrease in colony forming units or viability”. The MIC in test [1] (Bacillus subtilis, BGSC1A2) came to 0.5 µg/mL (≈ 1.57 µM). The “growth rate as measured … at 600 nm” value in test [3] was “very little effect, if any”.
